# In US20240245806A1, “TREATMENT OF NEURODEGENERATIVE DISEASE USING CSA- AND INDY-TYPE COMPOUNDS” (BROWN UNIVERSITY, priority 2021, published 2024):
# Entries after “also recorded” stand apart in the source; their conditions may differ.
# Key:
# [1] = tested on: zebrafish larvae; test: Acute exposure of 5 dpf zebrafish larvae to modulators of calcineurin signaling, automated analysis of behavior; format: in vivo, Danio rerio; settings: vs DMSO
# Protocol: Zebrafish larvae were treated at 5 dpf with various modulators of calcineurin signaling, starting 3 hours before imaging. The larvae were then imaged for a total of 3 hours using a behavioral assay with various visual and acoustic stimuli (FIG. 6). The behavioral assay started with a 1-hour period without stimuli, followed by 80 minutes with visual stimuli, 10 minutes without visual or acoustic stimuli, and 30 minutes with acoustic stimuli. Values of activity (% move) and position (% up) were averaged in individual larvae during 10-minute periods, for a total of 18 periods. These values were subsequently averaged between larvae in the same treatment group. We examined a total of 10 treatment groups. For clarity, only 3 treatment groups were graphed (FIG. 6), but all 10 treatment groups were analyzed in detail as shown in subsequent figures. […] The assay provides quantitative information on activity, visually-guided behaviors and acoustic startle responses.
# To determine if larval zebrafish behavior is affected by modulation of calcineurin signaling, we imaged 5 day-old larvae in the following 10 treatment groups: 10 μM cyclosporine A (CsA), 1 μM tacrolimus (FK506), 5 or 10 μM proINDY, a combination of CsA+5 or 10 μM proINDY, or a combination of FK506+5 or 10 μM proINDY, DMSO as a vehicle control, and 1 μM rapamycin as a control for target specificity. Rapamycin and FK506 are both macrolide immunosuppressants with similar structures, however, rapamycin affects Target of Rapamycin (TOR) signaling instead of calcineurin signaling. Vellanki et al., Front Mol Biosci 7, 588913 (2020). The concentrations of CsA, FK506 and rapamycin were selected based on prior studies in zebrafish embryos and larvae. Clift et al., Behav Brain Res 282, 117-124 (2015). The two concentrations of proINDY, a membrane-permeable form of INDY (inhibitor of DYRK), were selected based on studies in cell lines and Xenopus embryos. Ogawa et al., Nat Commun 1, 86 (2010).
# The research project has been conducted in accordance with local and federal guidelines for ethical and humane use of animals and has been reviewed and approved by the Brown University Institutional Animal Care and Use Committee. Zebrafish (Danio rerio) embryos were collected and grown to larval stages as previously described. Thorn et al., Sci Rep 9, 13989 (2019). Adult wild-type zebrafish are maintained at Brown University as a genetically-diverse outbred strain in a mixed male and female population. Zebrafish embryos from 0-3 days post-fertilization (dpf) and zebrafish larvae from 3-5 dpf were maintained at 28.5° C. in 2 L culture trays with egg water, containing 60 mg/L sea salt (Instant Ocean) and 0.25 mg/L methylene blue in deionized water. Embryos and larvae were kept on a 12 hour light/12 hour dark cycle and were randomly assigned to different experimental groups prior to experimental manipulation. The sex of embryos and larvae cannot be determined at such early stages because zebrafish use elusive polygenic factors for sex determination, and both males and females have juvenile ovaries between 2.5 and 4 weeks of development. Zebrafish larvae were imaged at 5 dpf when the larvae display a range of locomotor behaviors and consume nutrients available in the yolk sac. Larvae are approximately 4 mm long at the 5 dpf stage.
# Cyclosporine (cyclosporin A, Enzo Life Sciences), FK506 (tacrolimus, Enzo Life Sciences), rapamycin (Santa Cruz Biotechnology) and proINDY (Tocris Bioscience) were diluted in egg water from 1000× stocks dissolved in dimethyl sulfoxide (DMSO). DMSO (1 μl/ml DMSO) was added to the single treatments and the corresponding DMSO concentration was used as a vehicle control for all solutions. Larvae were exposed at 5 dpf to treatment solutions or DMSO for a total of 6 hours. Larvae were first treated in a Petri dish for 2 hours, transferred with the treatment solution to white 96-well ProxiPlates (PerkinElmer, 6006290) for 1 hour, and then imaged in the treatment solution for 3 hours. […]
# [2] = tested on: zebrafish embryos and larvae; test: Developmental exposure (2-3, 3-4 or 4-5 dpf) of zebrafish to modulators of calcineurin signaling, behavior imaged at 5 dpf; format: in vivo; settings: for early activity (first hour): imaged 5 dpf
# Protocol: Zebrafish. Adult wild type zebrafish (Danio rerio) are maintained at Brown University as a genetically-diverse outbred strain in a mixed male and female population. Zebrafish embryos were collected and grown to larval stages as described previously. Thorn et al., Sci Rep 9, 13989 (2019). Embryos from 0-3 days post-fertilization (dpf) and larvae from 3-5 dpf were kept on a 12 hour light/12 hour dark cycle at 28.5° C. in 2 L culture trays with egg water, containing 60 mg/L sea salt (Instant Ocean) and 0.25 mg/L methylene blue in deionized water. Zebrafish embryos and larvae were randomly assigned to different experimental groups prior to experimental manipulation. The sex of embryos and larvae cannot be determined at such early stages because zebrafish use elusive polygenic factors for sex determination, and both males and females have juvenile ovaries between 2.5 and 4 weeks of development. Liew et al., Brief Funct Genomics 13(2), 172-187 (2014). Zebrafish larvae were imaged at 5 dpf when they are approximately 4 mm long, display a range of locomotor behaviors and consume nutrients available in the yolk sac. Clift et al., Zebrafish 11(5), 455-461 (2014).
# Pharmacological treatments. Zebrafish embryos and larvae were treated with 10 μM CsA (cyclosporin A, Enzo Life Sciences), 1 μM FK506 (tacrolimus, Enzo Life Sciences), 1 μM rapamycin (Santa Cruz Biotechnology), 5 μM proINDY (Tocris Bioscience) or co-treatments of either 10 μM CsA+5 μM proINDY or 1 μM FK506+5 μM proINDY. […] Clift et al., Behav Brain Res, 282, 117-124 (2015). […] Robinson et al., J Appl Toxicol 37(12), 1438-1447 (2017). […] All administered compounds were diluted in egg water from 1000× stocks dissolved in dimethyl sulfoxide (DMSO). The corresponding DMSO concentration (1 μl DMSO/ml egg water) was used as a vehicle control. Embryos and larvae were treated during one of the following developmental stages: 2-3, 3-4, or 4-5 dpf. The embryos and larvae were treated in 10 cm Petri dishes for 24 hours, rinsed three times with egg water, and then transferred to new Petri dishes with egg water. Larvae that were treated from 4-5 dpf were rinsed and kept in egg water for 3 hours prior to imaging, typically from 10 am to 1 pm. All treatment groups were imaged at 5 dpf in egg water. For imaging, larvae were transferred to white 96-well ProxiPlates (PerkinElmer, 6006290) and were imaged for 3 hours, typically from 1-4 pm (FIG. 12).
# Imaging of zebrafish larvae. Zebrafish larvae were imaged in a 384-well imaging system as described previously. Thorn et al., Sci Rep 9, 13989 (2019). Briefly, four 96-well ProxiPlates were placed on a glass stage inside a temperature-controlled cabinet, set at 28.5° C. The upper shelf of the cabinet holds a high-resolution camera (18-megapixel Canon EOS Rebel T6 with an EF-S 55-250 mm f/4.0-5.6 IS zoom lens), connected to a continuous power supply (Canon ACK-E10 AC Adapter) and controlled by a laptop computer. Images are acquired using Canon's Remote Capture software (EOS Utility, version 3), which is included with the camera. Every 6 seconds, the camera acquires a high-resolution image of larvae in the microplates (FIG. 12). Two small speakers (OfficeTec USB Computer Speakers Compact 2.0 System) are located speaker-side down on the glass stage. Speakers were connected by USB to the laptop computer and set to maximum volume (85 dBA).
# Behavioral assay. Larval behaviors were imaged for 3 hours, as described previously. Thorn et al., Sci Rep 9, 13989 (2019). […] The PowerPoint started with a light background for 60 minutes without visual or acoustic stimuli, followed by 80 minutes with visual stimuli, 10 minutes without stimuli, and 30 minutes with acoustic stimuli (FIG. 12). Larvae were not exposed to visual stimuli and acoustic stimuli at the same time. The visual stimuli consisted of a series of lines that moved upwards or downwards in the microplates, in a horizontal plane. […]
# [3] = tested on: transplant patients; settings: all age groups above 65; cited from earlier work
# [4] = 5 dpf acute exposure, 10 μM CsA, 1 μM FK506, 1 μM rapamycin, proINDY
compound,measurement,setting,value
"C=CC[C@@H]1/C=C(\C)C[C@H](C)C[C@H](OC)[C@H]2O[C@@](O)(C(=O)C(=O)N3CCCC[C@H]3C(=O)O[C@H](/C(C)=C/[C@@H]3CC[C@@H](O)[C@H](OC)C3)[C@H](C)[C@@H](O)CC1=O)[C@H](C)C[C@@H]2OC [FK506, tacrolimus]",optomotor response (OMR),[1]; 5 dpf acute exposure,decreased optomotor responses
same,early activity (first hour of imaging),[1]; [4],increased early larval activity; also recorded: significant increase in both early and late activity
same,late activity (period 15),[1]; [4],increased activity; also recorded: significant increase in both early and late activity
same,activity,"[1]; 5 dpf acute exposure, 10 μM CsA, 1 μM FK506, proINDY 5 or 10 μM",increased activity
same,excitability (acoustic stimuli at 1-second intervals),[1]; 5 dpf acute,increase in excitability; also recorded: increased excitability
same,habituation to acoustic stimuli at 1-second intervals,[1]; 5 dpf acute,decreased habituation
same,optomotor response to red lines,"[1]; 5 dpf acute, proINDY 5 μM",decreased optomotor responses
same,startle responses (20-second interval),"[2]; all exposure groups, vs DMSO",decrease startle responses
same,OMR Blue,[2]; exposure 2-3 dpf,decrease in OMR Blue
same,OMR Green,[2]; exposure 2-3 dpf,decrease in OMR Green
same,OMR RGB,[2]; exposure 2-3 dpf,decrease in OMR RGB
same,behavioral profile,[2]; exposure 2-3 dpf,"hyperactivity, low habituation, and low optomotor responses"
same,habituation to acoustic stimuli (1 second interval),[2]; exposure 2-3 dpf,reduced larval habituation
same,startle responses (20-second interval),[2]; exposure 2-3 dpf,strongly reduced
same,early activity (first hour),[2]; exposure 2-3 dpf,hyperactivity
same,habituation to acoustic stimuli (1 second interval),[2]; exposure 3-4 dpf,reduced larval habituation
same,late activity (period 15),[2]; exposure 3-4 dpf,substantial increases in activity
same,startle responses (20-second interval),[2]; exposure 3-4 dpf,reduced
same,early activity (first hour),[2]; exposure 3-4 dpf,hyperactivity
same,OMR Fast Red,[2]; exposure 4-5 dpf,decrease in OMR Fast Red
same,OMR Green,[2]; exposure 4-5 dpf,decrease in OMR Green
same,excitability,[2]; exposure 4-5 dpf,increases in excitability
same,habituation to acoustic stimuli (1 second interval),[2]; exposure 4-5 dpf,increased larval habituation
same,late activity (period 15),[2]; exposure 4-5 dpf,substantial increases in activity
same,development of Alzheimer's disease in treated transplant patients,[3],rarely develops
